Test [1] relates to mouse macrophages (RAW 264.7). In words: In vitro innate immune response: cytokine secretion (ELISA) of macrophages treated with HDM-EV. Type of test: cell-based. The following applies: house dust mite-derived vesicles with Polymyxin B. How it is done: In detail, mouse macrophages (RAW264.7) were seeded at a density of 1×10^5 cells/well into 24 well plates and grown for 24 hours. After the cells were washed with PBS, a fresh DMEM medium was added to the cells which were then incubated for 15 hours with 100 ng, 1 μg and 10 μg of house dust mite-derived extracellular vesicles (HDM-EV). The culture media were harvested and centrifuged at 4° C. and 800×g for 10 min. Cytokines in the supernatant were quantitatively analyzed by enzyme linked immunosorbent assay (ELISA).

In test [2] the test system is mouse macrophages (RAW 264.7). Kind of test: In vitro innate immunity: cytokine secretion (ELISA) of macrophages treated with indoor dust-derived vesicles. The settings on record: Dust-EV treated with PMB or heat, vs Dust-EV alone. It counts as cell-based. As to the method:
Indoor dust was solubilized in PBS to separate extracellular vesicles and soluble components. The induction of innate immune responses by the vesicles and the water-soluble components was examined in vitro by applying them to mouse macrophages and measuring cytokine levels in the culture media.
In detail, mouse macrophages (RAW264.7) were seeded at a density of 1×10^5 cells/well into 24 well plates and maintained for 24 hours. After the cells were washed with PBS, a fresh DMEM medium was added to the cells which were then incubated for 15 hours with dust-derived extracellular vesicles (Dust-EV, 0.1 μg/ml) and soluble components (Dust-soluble, 8 μg/ml), separately. The culture media were harvested and centrifuged at 4° C. and 800×g for 10 min. Cytokines in the supernatant were quantitatively analyzed by enzyme linked immunosorbent assay (ELISA).
In addition, cytokine levels were measured after the cells were treated with 100 ng/ml and 1 μg/ml of the extracellular vesicles in the same manner as described above.
It is well known that LPS, found in the outer membrane of Gram-negative bacteria, acts as an endotoxin to induce innate immune responses and that it has been detected in indoor dust.
A general note: An ELISA detects its analyte on a solid surface through an enzyme-linked reagent.

The next test has as its system C57BL/6 mice. Kind of test: In vivo acquired immune response to repetitive intranasal Dust-EV with or without PMB. Set-up: species or system mouse. As to the method:
C57BL/6 mice (6 weeks old, female, four in each group) were intranasally administered twice a week for three weeks with 1 μg of indoor dust-derived extracellular vesicles in 30 μl of PBS. In addition, the vesicles were administered together with PMB so as to examine the presence and role of LPS therein. Twenty four hours after injection, clinical analysis was performed.
Moreover, the immunological mechanism associated with the onset of lung inflammation was evaluated. Immune cells were separated from local lymph nodes and analyzed for the expression levels of IFN-γ and IL-17.

Where [3] appears, read: vesicles in combination with PMB, ELISA.

The values below come from patent US8691522B2, “Composition comprising extracellular membrane vesicles derived from indoor air, and use thereof” (priority 2009, dated 2014).

Polymyxin B [PMB]: the “vesicle-induced secretion of inflammatory mediators” value in test [1] is listed as “suppressed”. For the same substance, in test [2], the “vesicle-induced secretion of IL-6” value was “significantly reduced” and the “vesicle-induced secretion of TNF-α” value is recorded as “significantly decreased”. The “count of inflammatory cells in BAL fluid” value in the test with C57BL/6 mice (Dust-EV administered together with PMB (Dust-EV+PMB), in contrast to vesicles alone) was “low”. In addition, in the test with C57BL/6 mice (Dust-EV in the presence of PMB), the “count of T cells secreting IFN-γ and IL-17 in local lymph nodes” value is “reduced the count of T cells including those secreting IFN-γ and IL-17 in local lymph nodes”. In addition, in the test with C57BL/6 mice (setting [3]), the “level of IgG1 specific for indoor dust-derived vesicles in sera” value is “reduced to almost the same as those of the PBS group” and the “level of IgG2a specific for indoor dust-derived vesicles in sera” value is “reduced to almost the same as those of the PBS group”.
